17 compounds from patent US7238775B2, “Receptor(SSTR4)-selective somatostatin analogs” (The Salk Institute for Biological Studies, priority 2002, dated 2007) can be followed below.

“And” between values parts separate entries of the source, which are not always exact repeats. Equal values may be shown once. Numbered stars: 1 amine (or outer) side, 2 acyl side, 3 side chain; on linkers, the order of the positions; unused ones are H or OH. Bridge positions count the residues as written; N and C are the ends. Square brackets hold non-standard residues; d marks the D form. Ends that are not written are not given here. Peptide text beside a SMILES is read from it. * marks the point of attachment. DOTA = O=C(O)CN1CCN(CC(=O)O)CCN(CC(=O)*)CCN(CC(=O)O)CC1; d2Nal(3S-Me) = C[C@@H](c1ccc2ccccc2c1)[C@@H](N)C(=O)O; Phe(4-NH2) = Nc1ccc(C[C@H](N)C(=O)O)cc1; X2 = NC(=O)N[C@@H](CS[*:2])C(=O)[*:1]; GABA = NCCCC(=O)O

T2 sequence (P31391 whole entry): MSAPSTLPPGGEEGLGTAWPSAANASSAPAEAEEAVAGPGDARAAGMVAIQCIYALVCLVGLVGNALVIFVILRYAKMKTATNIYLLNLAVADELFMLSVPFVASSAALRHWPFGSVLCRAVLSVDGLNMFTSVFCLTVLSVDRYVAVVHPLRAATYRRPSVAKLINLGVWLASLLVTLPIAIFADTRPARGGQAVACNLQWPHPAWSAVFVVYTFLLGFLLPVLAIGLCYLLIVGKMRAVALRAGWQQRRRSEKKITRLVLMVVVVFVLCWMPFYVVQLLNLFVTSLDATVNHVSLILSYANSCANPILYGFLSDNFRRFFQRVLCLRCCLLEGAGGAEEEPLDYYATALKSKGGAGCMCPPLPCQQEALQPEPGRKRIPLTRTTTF
T1 sequence (P30872 whole entry): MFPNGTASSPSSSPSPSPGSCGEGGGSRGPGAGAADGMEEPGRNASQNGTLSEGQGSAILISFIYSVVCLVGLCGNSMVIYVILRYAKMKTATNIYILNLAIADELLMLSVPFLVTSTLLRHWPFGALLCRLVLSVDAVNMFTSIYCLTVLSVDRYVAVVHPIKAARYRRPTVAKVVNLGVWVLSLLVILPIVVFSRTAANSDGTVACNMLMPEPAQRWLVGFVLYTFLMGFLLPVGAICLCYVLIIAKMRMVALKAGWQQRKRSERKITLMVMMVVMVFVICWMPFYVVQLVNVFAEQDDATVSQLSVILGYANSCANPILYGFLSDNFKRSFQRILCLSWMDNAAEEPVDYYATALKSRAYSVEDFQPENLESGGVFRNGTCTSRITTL

The first assay has as its target T1, hSSTR1 (Homo sapiens, UniProt P30872).
T1 construct: expressed in transfected cells; host or cells: CHO-K1 cells and CCL39 cells
The assay is described as follows: Displacement of 125I-[Leu8,D-Trp22,Tyr25]SRIF-28 from cloned receptor, membrane pellet autoradiography. Format: binding. Conditions: inhibition of 125I-SRIF-28 radioligand binding, cloned human receptor. The method, then: (§1) In vitro Bioassay: The effects of the various somatostatin analogs are tested in vitro for their ability to bind to isolated cloned receptors expressed on CHO-K1 cells and CCL39 cells. CHO-K1 cells are grown in Ham's F-12 medium, and CCL39 cells are grown in Dulbecco's modified Eagle's medium/Ham's F-12(1:1) mix, supplemented with 10% fetal bovine serum, 100 U/ml penicillin and 100 μg/ml streptomycin, in humidified air containing 5% CO2 at 37° C.
(§2) Cells are washed twice with and scraped into ice-cold 0.05 M Tris-HCl (pH 7.4), collected by centrifugation, and homogenized using a rotor/stator/system in the same buffer. After centrifugation at 120 g for 5 min at 4° C., the supernatant is collected and centrifuged again at 48,000 g for 30 min at 4° C. The resulting pellet is resuspended in ice-cold Tris buffer, transferred into a microfuge tube, and centrifuged at 20,000 g for 15 min at 4° C. After withdrawal of the supernatant, the membrane pellet is stored at −80° C.
Receptor autoradiography is performed on 20 μm thick cryostat sections of the membrane pellets, mounted on microscope slides, and then stored at −20° C. […] […] […] IC50 values are calculated after quantification of the data using a computer-assisted image processing system as known in this art.
(§3) The numbers in parentheses indicate the number of times the particular binding test was carried out.
(In general: Displacement assays read how much labelled ligand stays bound in the presence of the test substance.)
With `C[C@@H](O)[C@@H]1NC(=O)[C@H](CCCCN)NC(=O)[C@H](Cc2c[nH]c3ccccc23)NC(=O)[C@H](Cc2ccc(CN)cc2)NC(=O)[C@H](Cc2ccccc2)NC(=O)[C@@H](NC(=O)[C@@H](N)Cc2ccc(O)cc2)CSSC[C@@H](C(=O)O)NC(=O)[C@H](Cc2ccccc2)NC1=O` [Peptide No. 15, (cyclo)H-Tyr-Cys-Phe-4 Amp-Trp-Lys-Thr-Phe-Cys-OH], the IC50 is > 1000 nM.
Same read-out and setting: with `C[C@@H](O)[C@@H]1NC(=O)[C@H](CCCCN)NC(=O)[C@H](Cc2c[nH]c3ccccc23)NC(=O)[C@H](Cc2ccc(CN)cc2)NC(=O)[C@H](Cc2ccccc2)NC(=O)[C@@H](NC(=O)[C@H](Cc2ccc(O)cc2)NC(N)=O)CSSC[C@@H](C(=O)O)NC(=O)[C@H](Cc2ccccc2)NC1=O` [Peptide No. 15A, (cyclo)Cbm-Tyr-Cys-Phe-Amp-Trp-Lys-Thr-Phe-Cys-OH] the figure was > 1000 nM.

The next assay has as its target T2, hSSTR4 (Homo sapiens, UniProt P31391).
T2 construct: expressed in transfected cells; host or cells: CHO-K1 cells and CCL39 cells
The assay is described as above. In kind it is binding.
Conditions: not given
As for the experimental part: as §1, §2
Receptor autoradiography is performed on 20 μm thick cryostat sections of the membrane pellets, mounted on microscope slides, and then stored at −20° C. […] Increasing concentrations of the unlabeled peptide are used ranging from 0.1-1000 nM. […] IC50 values are calculated after quantification of the data using a computer-assisted image processing system as known in this art.
as §3
In the case of `C[C@@H]1NC(=O)[C@H](Cc2ccccc2)NC(=O)[C@@H](NC(=O)CN2CCN(CC(=O)O)CCN(CC(=O)O)CCN(CC(=O)O)CC2)CSSC[C@@H](C(=O)O)NC(=O)[C@H](Cc2ccccc2)NC(=O)[C@H]([C@@H](C)O)NC(=O)[C@H](CCCCN)NC(=O)[C@H](Cc2c[nH]c3ccccc23)NC1=O` [Peptide 12C] ({DOTA}-CFAWKTFC-OH; disulfide 1-8), the “selectivity in binding to SSTR4 compared with the other 4 receptors (in words)” value (from here on “selectivity in binding to SSTR4”) is recorded as “continues to show selectivity in binding to hSSTR4”.
With `C[C@@H]1NC(=O)[C@H](Cc2ccccc2)NC(=O)[C@@H](NC(=O)CCCNC(=O)CN2CCN(CC(=O)O)CCN(CC(=O)O)CCN(CC(=O)O)CC2)CSSC[C@@H](C(=O)O)NC(=O)[C@H](Cc2ccccc2)NC(=O)[C@H]([C@@H](C)O)NC(=O)[C@H](CCCCN)NC(=O)[C@H](Cc2c[nH]c3ccccc23)NC1=O` [Peptide 12D] ({DOTA-GABA}-CFAWKTFC-OH; disulfide 1-8), the “selectivity in binding to SSTR4” value was “continues to show selectivity in binding to hSSTR4”.
On the same count and under the same terms, the entry for `C[C@@H]1NC(=O)[C@H](Cc2ccccc2)NC(=O)[C@@H](N)CSSC[C@@H](C(=O)O)NC(=O)[C@H](Cc2ccccc2)NC(=O)[C@H]([C@@H](C)O)NC(=O)[C@H](CCCCN)NC(=O)[C@@H](Cc2c[nH]c3ccccc23)NC1=O` [Peptide No. 11, (cyclo)H-Cys-Phe-Ala-D-Trp-Lys-Thr-Phe-Cys-OH] (H-CFA[dW]KTFC-OH; disulfide 1-8) is “selectively binds to SSTR4”; for `C[C@@H](O)[C@@H]1NC(=O)[C@H](CCCCN)NC(=O)[C@@H]([C@@H](C)c2ccc3ccccc3c2)NC(=O)[C@H](Cc2ccc(O)cc2)NC(=O)[C@H](Cc2ccccc2)NC(=O)[C@@H](N)CSSC[C@@H](C(=O)O)NC(=O)[C@H](Cc2ccccc2)NC1=O` [Peptide No. 17, (cyclo)H-Cys-Phe-Tyr-threo-(2R,3S)C^βMe-2Nal-Lys-Thr-Phe-Cys-OH] (H-CFY[d2Nal(3S-Me)]KTFC-OH; disulfide 1-8) it is “show selectivity for binding to SSTR4”; for “(cyclo)Cys-Phe-Val-Trp-Lys-Thr-Val-Cys-OH (CFVWKTVC-OH; disulfide 1-8 (inferred)) [Peptide No. 12F]” it is “selective in binding to hSSTR4”.
Take “(cyclo)H-Cys-Phe-Ala-Trp-Lys-Thr-Gly-Cys-OH (H-CFAWKTGC-OH; disulfide 1-8 (inferred)) [Peptide 12G]”: the “selectivity in binding to SSTR4” value is given as “selective in binding to hSSTR4”.
With “(cyclo)H-Cys-Phe-Ala-Trp-Lys-Thr-Val-Cys-OH (H-CFAWKTVC-OH; disulfide 1-8 (inferred)) [Peptide 12E]”, the “selectivity in binding to SSTR4” value is recorded as “selective in binding to hSSTR4”.
The same measure, in the same setting: with “(cyclo)H-Cys-Phe-Val-D-Trp-Lys-Thr-Phe-Cys-OH (H-CFV[dW]KTFC-OH; disulfide 1-8; SMILES CC(C)[C@@H]1NC(=O)[C@H](Cc2ccccc2)NC(=O)[C@@H](N)CSSC[C@@H](C(=O)O)NC(=O)[C@H](Cc2ccccc2)NC(=O)[C@H]([C@@H](C)O)NC(=O)[C@H](CCCCN)NC(=O)[C@@H](Cc2c[nH]c3ccccc23)NC1=O) [Peptide 11A]” the entry was “selective in binding to hSSTR4”.

The assay is the same for the next values; noted with them: inhibition of 125I-SRIF-28 radioligand binding, cloned human receptor.
In turn, `C[C@@H](O)[C@@H]1NC(=O)[C@H](CCCCN)NC(=O)[C@@H](Cc2c[nH]c3ccccc23)NC(=O)[C@H](Cc2ccc(N)cc2)NC(=O)[C@H](Cc2ccccc2)NC(=O)[C@@H](NC(N)=O)CSSC[C@@H](C(=O)O)NC(=O)[C@H](Cc2ccccc2)NC1=O` [Peptide No. 4, (cyclo)Cbm-Cys-Phe-4Aph-D-Trp-Lys-Thr-Phe-Cys-OH] (F[Phe(4-NH2)][dW]KTFC-OH; linker N-7 via X2) came in with an IC50 of 1.1 ± 0.2 nM.
`C[C@@H](O)[C@@H]1NC(=O)[C@H](CCCCN)NC(=O)[C@@H](Cc2c[nH]c3ccccc23)NC(=O)[C@H](Cc2ccc(N)cc2)NC(=O)[C@H](Cc2ccccc2)NC(=O)[C@@H](NC(=O)[C@@H](N)Cc2ccc(O)cc2)CSSC[C@@H](C(=O)O)NC(=O)[C@H](Cc2ccccc2)NC1=O` [Peptide No. 7, (cyclo)H-Tyr-Cys-Phe-4Aph-D-Trp-Lys-Thr-Phe-Cys-OH] had a half-maximal inhibitory concentration (IC50) of 1.2 ± 0.3 nM.
Consider `C[C@@H](O)[C@@H]1NC(=O)[C@H](CCCCN)NC(=O)[C@H](Cc2c[nH]c3ccccc23)NC(=O)[C@H](Cc2ccc(N)cc2)NC(=O)[C@H](Cc2ccccc2)NC(=O)[C@@H](NC(=O)[C@H](Cc2ccc(O)cc2)NC(N)=O)CSSC[C@@H](C(=O)O)NC(=O)[C@H](Cc2ccccc2)NC1=O` [Peptide No. 8, (cyclo)Cbm-Tyr-Cys-Phe-4Aph-Trp-Lys-Thr-Phe-Cys-OH], for which the IC50 was ~1.2 nM and 1.2 nM.
On the same count and under the same terms, the figure for `C[C@@H](O)[C@@H]1NC(=O)[C@H](CCCCN)NC(=O)[C@H](Cc2c[nH]c3ccccc23)NC(=O)[C@H](Cc2ccc(N)cc2)NC(=O)[C@H](Cc2ccccc2)NC(=O)[C@@H](N)CSSC[C@@H](C(=O)O)NC(=O)[C@H](Cc2ccc(O)cc2)NC1=O` [Peptide No. 9, (cyclo)H-Cys-Phe-4Aph-Trp-Lys-Thr-Tyr-Cys-OH] is 1.1 ± 0.2 nM; for `C[C@@H]1NC(=O)[C@H](Cc2ccccc2)NC(=O)[C@@H](N)CSSC[C@@H](C(=O)O)NC(=O)[C@H](Cc2ccccc2)NC(=O)[C@H]([C@@H](C)O)NC(=O)[C@H](CCCCN)NC(=O)[C@@H](Cc2c[nH]c3ccccc23)NC1=O` [Peptide No. 11, (cyclo)H-Cys-Phe-Ala-D-Trp-Lys-Thr-Phe-Cys-OH] (H-CFA[dW]KTFC-OH; disulfide 1-8) it is 0.98 nM; for `C[C@@H]1NC(=O)[C@H](Cc2ccccc2)NC(=O)[C@@H](N)CSSC[C@@H](C(=O)O)NC(=O)[C@H](C)NC(=O)[C@H]([C@@H](C)O)NC(=O)[C@H](CCCCN)NC(=O)[C@H](Cc2c[nH]c3ccccc23)NC1=O` [Peptide No. 12A] (H-CFAWKTAC-OH; disulfide 1-8) it is 3.5 ± 0.8 nM.
On the same count and under the same terms, with `C[C@@H]1NC(=O)[C@H](Cc2ccccc2)NC(=O)[C@@H](NC(=O)[C@@H](N)Cc2ccc(O)c(I)c2)CSSC[C@@H](C(=O)O)NC(=O)[C@H](Cc2ccccc2)NC(=O)[C@H]([C@@H](C)O)NC(=O)[C@H](CCCCN)NC(=O)[C@H](Cc2c[nH]c3ccccc23)NC1=O` [Peptide No. 13A] the figure was ~3.5 nM; with `C[C@@H]1NC(=O)[C@H](Cc2ccccc2)NC(=O)[C@@H](NC(=O)[C@@H](N)Cc2ccc(O)cc2)CSSC[C@@H](C(=O)O)NC(=O)[C@H](Cc2ccccc2)NC(=O)[C@H]([C@@H](C)O)NC(=O)[C@H](CCCCN)NC(=O)[C@@H](Cc2c[nH]c3ccccc23)NC1=O` [Peptide No. 14, (cyclo)H-Tyr-Cys-Phe-Ala-D-Trp-Lys-Thr-Phe-Cys-OH], 1.1 ± 0.2 nM.

Broadly, the IC50 is the midpoint of a concentration-inhibition curve. Low values mean higher potency, high ones lower potency.
